{"source": "PubChem BioAssay AID1963980", "about": "(Molecular Pharmacology Branch, DTP, NCI, 2024);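 also: spheroids exposed to agents for seven days before readout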", "system": "475296-252-R-J1-PDC spheroid viability", "assay": "Anticancer human tumor 475296-252-R-J1-PDC patient-derived rectal carcinoma cell line growth inhibition [PI3K]", "conditions": "spheroids with HUVEC and MSC; for IC50: curve of first compound; for viability, T/C: stronger effect = lower value", "procedure,_shortened": "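Stroma-containing spheroids: tumor line, pooled-donor HUVEC, hMSC. Treatments: targeted agents with PI3K inhibitors. Dosing: clinically relevant, half-log spacing, 10 microM ceiling without known Cmax. Read-out: cell viability.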", "key": {"[1]": {"conditions": "second compound 0.0316 µM, first compound 0.000316 µM"}, "[2]": {"conditions": "second compound 0.0316 µM, first compound 0.001 µM"}, "[3]": {"conditions": "second compound 0.0316 µM, first compound 0.00316 µM"}, "[4]": {"conditions": "second compound 0.0316 µM, first compound 0.01 µM"}, "[5]": {"conditions": "second compound 0.0316 µM, first compound 0.0316 µM"}, "[6]": {"conditions": "second compound 0.0316 µM, first compound 0.1 µM"}, "[7]": {"conditions": "second compound 0.1 µM, first compound 0.000316 µM"}, "[8]": {"conditions": "second compound 0.1 µM, first compound 0.001 µM"}, "[9]": {"conditions": "second compound 0.1 µM, first compound 0.00316 µM"}, "[10]": {"conditions": "second compound 0.1 µM, first compound 0.01 µM"}, "[11]": {"conditions": "second compound 0.1 µM, first compound 0.0316 µM"}, "[12]": {"conditions": "second compound 0.1 µM, first compound 0.1 µM"}, "[13]": {"conditions": "second compound 0.316 µM, first compound 0.000316 µM"}, "[14]": {"conditions": "second compound 0.316 µM, first compound 0.001 µM"}, "[15]": {"conditions": "second compound 0.316 µM, first compound 0.00316 µM"}, "[16]": {"conditions": "second compound 0.316 µM, first compound 0.01 µM"}, "[17]": {"conditions": "second compound 0.316 µM, first compound 0.0316 µM"}, "[18]": {"conditions": "second compound 0.316 µM, first compound 0.1 µM"}, "[19]": {"conditions": "second compound 1 µM, first compound 0.000316 µM"}, "[20]": {"conditions": "second compound 1 µM, first compound 0.001 µM"}, "[21]": {"conditions": "second compound 1 µM, first compound 0.00316 µM"}, "[22]": {"conditions": "second compound 1 µM, first compound 0.01 µM"}, "[23]": {"conditions": "second compound 1 µM, first compound 0.0316 µM"}, "[24]": {"conditions": "second compound 1 µM, first compound 0.1 µM"}, "[25]": {"conditions": "second compound 3.16 µM, first compound 0.000316 µM"}, "[26]": {"conditions": "second compound 3.16 µM, first compound 0.001 µM"}, "[27]": {"conditions": "second compound 3.16 µM, first compound 0.00316 µM"}, "[28]": {"conditions": "second compound 3.16 µM, first compound 0.01 µM"}, "[29]": {"conditions": "second compound 3.16 µM, first compound 0.0316 µM"}, "[30]": {"conditions": "second compound 3.16 µM, first compound 0.1 µM"}, "[31]": {"conditions": "second compound 10 µM, first compound 0.000316 µM"}, "[32]": {"conditions": "second compound 10 µM, first compound 0.001 µM"}, "[33]": {"conditions": "second compound 10 µM, first compound 0.00316 µM"}, "[34]": {"conditions": "second compound 10 µM, first compound 0.01 µM"}, "[35]": {"conditions": "second compound 10 µM, first compound 0.0316 µM"}, "[36]": {"conditions": "second compound 10 µM, first compound 0.1 µM"}}, "data": [{"smiles": "CC(=O)c1c(C)c2cnc(Nc3ccc(N4CCNCC4)cn3)nc2n(C2CCCC2)c1=O", "note": "+ Cc1nc(NC(=O)N2CCCC2C(N)=O)sc1-c1ccnc(C(C)(C)C(F)(F)F)c1", "values": [{"measurement": "IC50", "setting": "second compound 0.0316 µM", "value": "> 0.1", "unit": "µM"}, {"measurement": "IC50", "setting": "second compound 0.1 µM", "value": "> 0.1", "unit": "µM"}, {"measurement": "IC50", "setting": "second compound 0.316 µM", "value": "> 0.1", "unit": "µM"}, {"measurement": "IC50", "setting": "second compound 1 µM", "value": "> 0.1", "unit": "µM"}, {"measurement": "IC50", "setting": "second compound 3.16 µM", "value": "> 0.1", "unit": "µM"}, {"measurement": "IC50", "setting": "second compound 10 µM", "value": "> 0.1", "unit": "µM"}, {"measurement": "viability, T/C", "setting": "[1]", "value": 99.6, "unit": "%"}, {"measurement": "viability, T/C", "setting": "[2]", "value": 96.9, "unit": "%"}, {"measurement": "viability, T/C", "setting": "[3]", "value": 101, "unit": "%"}, {"measurement": "viability, T/C", "setting": "[4]", "value": 97.4, "unit": "%"}, {"measurement": "viability, T/C", "setting": "[5]", "value": 117, "unit": "%"}, {"measurement": "viability, T/C", "setting": "[6]", "value": 118, "unit": "%"}, {"measurement": "viability, T/C", "setting": "[7]", "value": 106, "unit": "%"}, {"measurement": "viability, T/C", "setting": "[8]", "value": 94.4, "unit": "%"}, {"measurement": "viability, T/C", "setting": "[9]", "value": 107, "unit": "%"}, {"measurement": "viability, T/C", "setting": "[10]", "value": 91.3, "unit": "%"}, {"measurement": "viability, T/C", "setting": "[11]", "value": 103, "unit": "%"}, {"measurement": "viability, T/C", "setting": "[12]", "value": 108, "unit": "%"}, {"measurement": "viability, T/C", "setting": "[13]", "value": 92, "unit": "%"}, {"measurement": "viability, T/C", "setting": "[14]", "value": 114, "unit": "%"}, {"measurement": "viability, T/C", "setting": "[15]", "value": 94.1, "unit": "%"}, {"measurement": "viability, T/C", "setting": "[16]", "value": 101, "unit": "%"}, {"measurement": "viability, T/C", "setting": "[17]", "value": 110, "unit": "%"}, {"measurement": "viability, T/C", "setting": "[18]", "value": 101, "unit": "%"}, {"measurement": "viability, T/C", "setting": "[19]", "value": 101, "unit": "%"}, {"measurement": "viability, T/C", "setting": "[20]", "value": 95.5, "unit": "%"}, {"measurement": "viability, T/C", "setting": "[21]", "value": 100, "unit": "%"}, {"measurement": "viability, T/C", "setting": "[22]", "value": 112, "unit": "%"}, {"measurement": "viability, T/C", "setting": "[23]", "value": 104, "unit": "%"}, {"measurement": "viability, T/C", "setting": "[24]", "value": 102, "unit": "%"}, {"measurement": "viability, T/C", "setting": "[25]", "value": 90.4, "unit": "%"}, {"measurement": "viability, T/C", "setting": "[26]", "value": 102, "unit": "%"}, {"measurement": "viability, T/C", "setting": "[27]", "value": 96.8, "unit": "%"}, {"measurement": "viability, T/C", "setting": "[28]", "value": 99, "unit": "%"}, {"measurement": "viability, T/C", "setting": "[29]", "value": 99.8, "unit": "%"}, {"measurement": "viability, T/C", "setting": "[30]", "value": 98.9, "unit": "%"}, {"measurement": "viability, T/C", "setting": "[31]", "value": 98, "unit": "%"}, {"measurement": "viability, T/C", "setting": "[32]", "value": 92.7, "unit": "%"}, {"measurement": "viability, T/C", "setting": "[33]", "value": 96.9, "unit": "%"}, {"measurement": "viability, T/C", "setting": "[34]", "value": 98.9, "unit": "%"}, {"measurement": "viability, T/C", "setting": "[35]", "value": 98.8, "unit": "%"}, {"measurement": "viability, T/C", "setting": "[36]", "value": 90.2, "unit": "%"}]}, {"smiles": "CC(C)n1nc(-c2ccc3oc(N)nc3c2)c2c(N)ncnc21", "note": "+ Cc1nc(NC(=O)N2CCCC2C(N)=O)sc1-c1ccnc(C(C)(C)C(F)(F)F)c1", "values": [{"measurement": "IC50", "setting": "second compound 0.0316 µM", "value": "> 0.1", "unit": "µM"}, {"measurement": "IC50", "setting": "second compound 0.1 µM", "value": "> 0.1", "unit": "µM"}, {"measurement": "IC50", "setting": "second compound 0.316 µM", "value": "> 0.1", "unit": "µM"}, {"measurement": "IC50", "setting": "second compound 1 µM", "value": "> 0.1", "unit": "µM"}, {"measurement": "IC50", "setting": "second compound 3.16 µM", "value": "> 0.1", "unit": "µM"}, {"measurement": "IC50", "setting": "second compound 10 µM", "value": "> 0.1", "unit": "µM"}, {"measurement": "viability, T/C", "setting": "[1]", "value": 93.5, "unit": "%"}, {"measurement": "viability, T/C", "setting": "[2]", "value": 95.3, "unit": "%"}, {"measurement": "viability, T/C", "setting": "[3]", "value": 93.1, "unit": "%"}, {"measurement": "viability, T/C", "setting": "[4]", "value": 88.4, "unit": "%"}, {"measurement": "viability, T/C", "setting": "[5]", "value": 83.9, "unit": "%"}, {"measurement": "viability, T/C", "setting": "[6]", "value": 64.1, "unit": "%"}, {"measurement": "viability, T/C", "setting": "[7]", "value": 92.1, "unit": "%"}, {"measurement": "viability, T/C", "setting": "[8]", "value": 98, "unit": "%"}, {"measurement": "viability, T/C", "setting": "[9]", "value": 95.2, "unit": "%"}, {"measurement": "viability, T/C", "setting": "[10]", "value": 84.5, "unit": "%"}, {"measurement": "viability, T/C", "setting": "[11]", "value": 76.8, "unit": "%"}, {"measurement": "viability, T/C", "setting": "[12]", "value": 62, "unit": "%"}, {"measurement": "viability, T/C", "setting": "[13]", "value": 97.1, "unit": "%"}, {"measurement": "viability, T/C", "setting": "[14]", "value": 95.4, "unit": "%"}, {"measurement": "viability, T/C", "setting": "[15]", "value": 85, "unit": "%"}, {"measurement": "viability, T/C", "setting": "[16]", "value": 92.8, "unit": "%"}, {"measurement": "viability, T/C", "setting": "[17]", "value": 85.9, "unit": "%"}, {"measurement": "viability, T/C", "setting": "[18]", "value": 59.9, "unit": "%"}, {"measurement": "viability, T/C", "setting": "[19]", "value": 89.8, "unit": "%"}, {"measurement": "viability, T/C", "setting": "[20]", "value": 106, "unit": "%"}, {"measurement": "viability, T/C", "setting": "[21]", "value": 87.3, "unit": "%"}, {"measurement": "viability, T/C", "setting": "[22]", "value": 91.9, "unit": "%"}, {"measurement": "viability, T/C", "setting": "[23]", "value": 70.2, "unit": "%"}, {"measurement": "viability, T/C", "setting": "[24]", "value": 57.1, "unit": "%"}, {"measurement": "viability, T/C", "setting": "[25]", "value": 83.4, "unit": "%"}, {"measurement": "viability, T/C", "setting": "[26]", "value": 86, "unit": "%"}, {"measurement": "viability, T/C", "setting": "[27]", "value": 88.4, "unit": "%"}, {"measurement": "viability, T/C", "setting": "[28]", "value": 77.5, "unit": "%"}, {"measurement": "viability, T/C", "setting": "[29]", "value": 82.3, "unit": "%"}, {"measurement": "viability, T/C", "setting": "[30]", "value": 54.3, "unit": "%"}, {"measurement": "viability, T/C", "setting": "[31]", "value": 91.1, "unit": "%"}, {"measurement": "viability, T/C", "setting": "[32]", "value": 85.1, "unit": "%"}, {"measurement": "viability, T/C", "setting": "[33]", "value": 83.8, "unit": "%"}, {"measurement": "viability, T/C", "setting": "[34]", "value": 89.2, "unit": "%"}, {"measurement": "viability, T/C", "setting": "[35]", "value": 86.5, "unit": "%"}, {"measurement": "viability, T/C", "setting": "[36]", "value": 54.4, "unit": "%"}]}]}
